This note sets out measurements from paper PMC7221574 (Molecules, 2020).

One assay deals with LoVo/DX. In words: cells. Type of assay: cell-based, human. The settings on record: for RI (resistance index): RI = (IC50 for LoVo/DX)/(IC50 for LoVo); for IC50: 72 h, read-out: IC50 LoVo/DX. As to the method:
(§1) The A549 cell line was purchased from the European Collection of Authenticated Cell Cultures (ECACC, Salisbury, UK). The MCF-7, LoVo and LoVo/DX cell lines was purchased from American Type Culture Collection (ATCC, Manassas, VA, USA). All the cell lines are maintained in the Institute of Immunology and Experimental Therapy (IIET), Wroclaw, Poland.
(§2) Human lung adenocarcinoma cell line was cultured in a mixture of OptiMEM and RPMI 1640 (1:1) medium (IIET, Wroclaw, Poland), supplemented with 5% fetal bovine serum HyClone (GE Healthcare, USA) and 2 mM L-glutamine (Sigma-Aldrich, Germany). Human breast adenocarcinoma cell line was cultured in a mixture of Eagle medium (IIET, Wroclaw, Poland), supplemented with 10% fetal bovine serum, 2 mM L-glutamine, 8 μg/mL insulin and 1% amino acids (Sigma-Aldrich, Germany). Human colon adenocarcinoma cell lines were cultured in a mixture of OptiMEM and RPMI 1640 (1:1) medium (IIET, Wroclaw, Poland), supplemented with 5% fetal bovine serum HyClone (GE Healthcare, USA), 2 mM L-glutamine, 1 mM sodium pyruvate (Sigma-Aldrich, Germany) and 10 μg/100 mL doxorubicin (Accord) for LoVo/DX. Murine embryonic fibroblast cells were cultured in Dulbecco medium (Gibco), supplemented with 10% fetal bovine serum (GE Healthcare, USA) and 2 mM L-glutamine (Sigma-Aldrich, Germany). All culture media contained antibiotics: 100 U/mL penicillin (Polfa-Tarchomin, Poland) and 0.1 mg/mL streptomycin (Sigma Aldrich, Germany). All cell lines were cultured during entire experiment in humid atmosphere at 37 °C and 5% CO2.
(§3) All cell lines were exposed to each tested agent at different concentrations in the range 100–0.001 μg/mL for 72 h. The cells were also exposed to the reference drug cisplatin (Teva Pharmaceuticals, Poland) and doxorubicin (Accord Healthcare Limited, UK). Additionally, all cell lines were exposed to DMSO (solvent used for tested compounds) (POCh, Poland) at concentrations corresponding to those present in dilutions of tested agents. After 72 h sulforhodamine B assay (SRB) was performed.
(§4) After 72 h of incubation with the tested compounds, the cells were fixed in situ by gently adding of 50 μL per well of cold 50% trichloroacetic acid TCA (POCh, Poland) and were incubated at room temperature for one hour. Then the wells were washed four times with water and air dried. Next, 50 μL of 0.1% solution of sulforhodamine B (Sigma-Aldrich, Germany) in 1% acetic acid (POCh, Poland) were added to each well and were incubated at room temperature for 0.5 h. After incubation time, unbound dye was removed by washing plates four times with 1% acetic acid, whereas the stain bound to cells was solubilized with 150 μL of 10 mM Tris base (Sigma-Aldrich, Germany). Absorbance of each solution was read from a Synergy H4 Hybrid Multi-Mode Microplate Reader (BioTek Instruments, USA) at the 540 nm wavelength.

The next assay has as its system A549. Put plainly: In vitro antiproliferative activity, SRB assay, A549. Type of assay: cell-based, human. The note with it: human lung adenocarcinoma, 72 h, SRB, mean ± SD. The protocol:
as §1, §2, §3, §4
A general note: The SRB assay estimates cell density from bound dye.

For a further assay, the system named is MCF-7. Put plainly: In vitro antiproliferative activity, SRB assay, MCF-7. The note with it: for IC50: human breast adenocarcinoma, 72 h, SRB, mean ± SD. Type of assay: cell-based, human. The protocol: as §1, §2, §3, §4
The test system of a further assay is BALB/3T3. In words: In vitro antiproliferative activity, SRB assay, normal fibroblasts BALB/3T3. Type of assay: cell-based, murine. The note with it: normal murine embryonic fibroblasts, 72 h, SRB, mean ± SD. As to the method:
as §1, §2, §3, §4

In the next assay the test system is LoVo. In words: In vitro antiproliferative activity, SRB assay, LoVo. Type of assay: cell-based, human. The note with it: human colon adenocarcinoma, 72 h, SRB, mean ± SD. The protocol:
as §1, §2, §3, §4

SMILES strings stand for the structures. “And” between values parts separate entries of the source, which are not always exact repeats. Identical values can stand only once. Like-named read-outs stand apart in the source and are kept apart here.

In the case of `N.N.[Cl][Pt][Cl]` [Cisplatin, reference compound], in the assay on LoVo/DX, the “RI (resistance index)” value was 1.2. Moreover, the IC50 in the assay with LoVo/DX (doxorubicin-resistant colon adenocarcinoma subline, SRB, mean ± SD) came to 8340 ± 1120 nM; in the assay on A549 it was 5740 ± 968 nM; in the assay on MCF-7, 7140 ± 1220 nM; with BALB/3T3, 5665 ± 31.8 nM; with LoVo it was 7080 ± 1600 nM.

For the molecule `CNc1ccc2c(cc1=O)[C@@H](NC(=O)c1cccnc1)CCc1cc(OC)c(OC)c(OC)c1-2` [Compound 15], the IC50 is 832 ± 293 nM with LoVo/DX (Homo sapiens, LoVo/DX); 36.8 ± 12.1 nM with A549 (Homo sapiens, A549, 72 h); 13 ± 2.2 nM in the assay on MCF-7 (Homo sapiens, MCF7, 72 h); 43.3 ± 29.7 nM with BALB/3T3 (Mus musculus, BALB/3T3); 10.8 ± 1.3 nM in the assay with LoVo (Homo sapiens, LoVo). The “RI (resistance index)” value in the assay with LoVo/DX was 76.8.

On to `CCCCC(=O)NC1CCc2cc(OC)c(OC)c(OC)c2-c2ccc(NC)c(=O)cc21` (stereo not shown) [Compound 6], for which the IC50 came out at 102 ± 20.7 nM with LoVo/DX (Homo sapiens, LoVo/DX); 13.6 ± 1.4 nM with A549 (Homo sapiens, A549, 72 h); 15.9 ± 6.6 nM with MCF-7 (Homo sapiens, MCF7, 72 h); 13.6 ± 2.3 nM in the assay on BALB/3T3 (Mus musculus, BALB/3T3); 6.8 ± 3.9 nM in the assay with LoVo (Homo sapiens, LoVo). Besides, the “RI (resistance index)” value in the assay on LoVo/DX was 15.0.

On to `C=CS(=O)(=O)NC1CCc2cc(OC)c(OC)c(OC)c2-c2ccc(NC)c(=O)cc21` (stereo not shown) [Compound 19], for which the IC50 came out at 307 ± 145 nM with LoVo/DX (Homo sapiens, LoVo/DX); 11.4 ± 1.7 nM with A549 (Homo sapiens, A549, 72 h); 13 ± 4.3 nM with MCF-7 (Homo sapiens, MCF7, 72 h); 8.3 ± 3.8 nM with BALB/3T3 (Mus musculus, BALB/3T3); 8.4 ± 0.7 nM in the assay on LoVo (Homo sapiens, LoVo). Besides, in the assay with LoVo/DX, the “RI (resistance index)” value was determined as 36.7.

As to `CNc1ccc2c(cc1=O)C(NS(N)(=O)=O)CCc1cc(OC)c(OC)c(OC)c1-2` (stereo not shown) [Compound 17], the IC50 in the assay with LoVo/DX (Homo sapiens, LoVo/DX) came out at 6470 ± 264 nM; in the assay on A549 (Homo sapiens, A549, 72 h), 56.6 ± 14.7 nM; in the assay on MCF-7 (Homo sapiens, MCF7, 72 h), 10.3 ± 3.9 nM; in the assay with BALB/3T3 (Mus musculus, BALB/3T3) it was 100 ± 24.1 nM; in the assay on LoVo (Homo sapiens, LoVo) it was 21.1 ± 17.5 nM. Also, the “RI (resistance index)” value in the assay on LoVo/DX worked out at 306.0. Besides, the “selectivity index (SI) MCF-7” value in the assay with MCF-7 (SI = (IC50 BALB/3T3)/(IC50 MCF-7)) was ~10 and 9.8.
